Tests used:
5-lipoxygenase = assay: 5-Lipoxygenase inhibitory activity, colorimetric method; type: biochemical
Procedure: The new dietary/pharmaceutical supplement compositions are screened for their 5-lipoxygenase inhibitory potential using colorimetric method. The assay mixture contained 50 mM phosphate buffer (pH 6.3), 5-lipoxygenase, various concentrations of test composition (5 μg, 10 μg, 20 μg) in dimethylsulphoxide and linolenic acid in a total volume of 0.5 mL, after 5 min incubation of above reaction mixture 0.5 mL ferric xylenol orange reagent is added and OD is measured after two minutes at 585 nm using spectrophotometer. Controls are run along with test in a similar manner except using vehicle instead of test substance solution. Percent inhibition is calculated by comparing absorbance of the test solution with that of control.

[1] = Protective effect against diet induced obesity in rats; type: in vivo, Sprague-Dawley rats; settings: 7 mg/kg oral per day, 8 weeks with high fat diet
Procedure: Selected healthy Sprague-Dawley rats were randomly assigned to control or various treatment groups (n=6). All the animals allocated for protective phase of the study were on dietary intervention by feeding high fat diet ad libitum and the animals allocated to treatment groups were simultaneously given oral administration of 250 mg/kg of composition-1 or 7 mg/kg sibutramine per day in […] of 0.5% CMC, using gastric tube for the entire 8 week study duration. The test animals of the control group were simultaneously given 10 ml/kg of 0.5% CMC. Food and water consumption were recorded daily, body weights were recorded weekly and fasting blood samples were collected before initiation, after 4th week and 8th week (termination) of the study.

| SMILES | % of inhibition (5-Lipoxygenase) (5-lipoxygenase; 5 μg) [%] | % of inhibition (5-Lipoxygenase) (5-lipoxygenase; 10 μg) [%] | reduction in weight gain [1] [%] |
| --- | --- | --- | --- |
| C[C@H](Cc1ccc(O)c(O)c1)[C@@H](C)Cc1ccc(O)c(O)c1 [NDGA, Nordihydroguiaretic acid] | 50.2 | 77.35 |  |
| CC(C)CC(N(C)C)C1(c2ccc(Cl)cc2)CCC1 (stereo not drawn) [sibutramine] |  |  | 28.2 |
